From publication PMC13252604, “First Generation Proteolysis Targeting Chimeras (PROTACs) for the Treatment of Progeria” (Advanced Science, 2026)

Biological target: T1, progerin (Mus musculus, UniProt P48678, DEL608-657)
T1 construct: endogenous in cells; host or cells: immortalized (SV40-LT) fibroblasts from Lmna G609G/G609G mice
T1 sequence (P48678 with tags, fused parts or gaps DEL608-657 limits assumed): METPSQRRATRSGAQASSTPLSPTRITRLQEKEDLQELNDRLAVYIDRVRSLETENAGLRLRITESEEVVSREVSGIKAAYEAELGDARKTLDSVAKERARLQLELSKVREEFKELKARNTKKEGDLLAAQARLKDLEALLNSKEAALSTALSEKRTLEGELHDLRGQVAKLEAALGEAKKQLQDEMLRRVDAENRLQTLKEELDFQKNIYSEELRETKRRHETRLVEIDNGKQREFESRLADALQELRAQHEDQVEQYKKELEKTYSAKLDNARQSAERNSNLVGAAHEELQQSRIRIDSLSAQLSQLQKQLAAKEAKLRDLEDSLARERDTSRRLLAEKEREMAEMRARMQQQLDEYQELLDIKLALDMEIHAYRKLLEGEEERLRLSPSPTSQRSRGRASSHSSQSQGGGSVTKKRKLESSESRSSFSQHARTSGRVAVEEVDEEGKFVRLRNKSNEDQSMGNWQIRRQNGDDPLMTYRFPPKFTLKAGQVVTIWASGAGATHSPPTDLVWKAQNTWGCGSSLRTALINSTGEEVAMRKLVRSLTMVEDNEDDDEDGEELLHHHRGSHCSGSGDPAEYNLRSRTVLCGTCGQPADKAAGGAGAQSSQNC
Assay: Progerin degradation, immunoblot in Lmna^G609G/G609G fibroblasts
Type: cell-based
Conditions: 8 h; for progerin levels (immunoblot quantification): Lmna^G609G/G609G fibroblasts, 5 µM, vs vehicle
Protocol: The ability of compounds 2‐6 to degrade progerin was evaluated in Lmna^G609G/G609G fibroblasts, derived from the progeria mouse model that most closely replicates the human disease phenotype. Lamin A/C antibody was used for immunodetection due to its prevalent use in this context, enabling simultaneous visualization of both lamins and progerin [15].
FIGURE 2 (A) Representative cropped immunoblots and quantification of progerin from Lmna^G609G/G609G fibroblasts. Cells were incubated with vehicle or indicated compound at 5 µM for 8 h. MW, molecular weight (in kDa) markers. (B, C) Concentration and time‐dependency of the reduction of progerin levels induced by compounds 2 and 9. Graphs show quantification of progerin in Lmna^G609G/G609G fibroblasts (immunoblots are shown in Supporting Figure S1). Cells were incubated with vehicle or the indicated compound concentration for 8 h. For time‐course experiments, cells were incubated with vehicle or indicated compound at 5 µM. Bar graphs show mean±sem of 3 independent experiments performed in duplicate. Data were analysed using one‐way ANOVA followed by Dunnett's post–hoc test comparing all groups to the vehicle; ^*, p < 0.05. […]
4. Cell lines and culture.
Progeroid mouse fibroblasts, kindly donated by Prof. Carlos López Otín (Oviedo University, Spain), were isolated from LmnaG609G/G609G mice[19] and wild-type (WT) littermates and immortalized by retroviral transduction with SV40 large T antigen (SV40-LT). Since LmnaG609G/G609G mouse represents the most suitable and widely accepted model of HGPS, as it most faithfully recapitulates the molecular and phenotypic features of the human disease, its use in this study is fully justified. Moreover, although this cell […]
cells have been extensively validated by additional independent studies.[15, 65, 66] […]
experiments, nor does it affect the conclusions presented in our study.
Mouse fibroblasts were grown in Dulbecco’s modified eagle medium (DMEM, Gibco) supplemented with 10% heat inactivated fetal bovine serum (FBS, Gibco), 50 U/mL penicillin, and 50 μg/mL streptomycin (Invitrogen). Human progeroid HGADFN167 LmnaG608G/G608G (G608G) or or healthy HGADFN168 Lmna+/+ (WT) fibroblasts, were obtained from The Progeria Research Foundation (RRIDs CVCL_1Y92 and CVCL_1Y93, respectively) and cultured in DMEM with 20% heat inactivated FBS, 50 U/mL penicillin and 50 μg/mL streptomycin. All cells were incubated in a humidified atmosphere at 37 °C in the presence of 5% CO2 and were confirmed to be free of mycoplasma contamination. […]
Measurements were performed in triplicate, and each experiment was repeated at least three times. The viability values were calculated from the percentage of viable cells with respect to 100% viability of the vehicle-treated cells.
6. Immunoblot and immunocytofluorescence analysis.
Mouse or human progeroid cells were seeded at density of […] or 5 x 10^4 cells respectively on 12-well plates and incubated for 24 h in DMEM medium. For proteosome-dependency assays, cells were pre-treated either with the proteasome inhibitor (S)-MG132 (20 µM) or with the NEDD8-activating enzyme inhibitor MLN4924 (5 µM) for 2 h prior to […]
compound exposure. Then, cells were incubated with compound of interest or DMSO for the appropriate time and lysed with cold laemmli buffer (50 mM Tris-HCl pH 7.4, 150 mM NaCl, 1% Igepal) with a mixture of protease and phosphatase inhibitors (1 mM PMSF, 10 mM NaF, 0.3 mg/mL CalyculinA, 1 mM sodium orthovanadate, 10 mM β-glycerol-phosphate; all from Sigma-Aldrich and complete protease inhibitor cocktail, from Roche). Proteins were denatured at 95 ᵒC for 5 min and the lysates were immediately used or stored at -20 ᵒC until use. Samples were analysed by electrophoresis in polyacrylamide gels (All Kd SDS-PAGE, BioRad) and the proteins transferred to nitrocellulose membranes (GE Healthcare, Amersham). After 1 h of incubation in blocking buffer [20 mM Tris pH 7.6, 150 mM NaCl and 0.1% Tween-20 (TBS-T) with […]

Structure (SMILES)	progerin levels (immunoblot quantification)	progerin-reducing activity in the presence of proteasome inhibitor MG132 (compound 5 µM, pre-treated with (S)-MG132 20 µM 2 h)	progerin-reducing activity in the presence of neddylation inhibitor MLN4924 (compound 5 µM, pre-treated with MLN4924 5 µM 2 h)
CC1(C)Oc2cc3oc(=O)ccc3cc2C[C@@H]1OC(=O)CCCCCNc1cccc2c1C(=O)N(C1CCC(=O)NC1=O)C2=O (stereo partly shown) [compound 2]	most effective in reducing progerin levels	abolished	abolished
CC1(C)Oc2cc3oc(=O)ccc3cc2C[C@@H]1OC(=O)CCCCC(=O)Oc1ccc2c(c1)CCCN2C(=O)CCl [compound 12]	failed to reduce progerin levels	–	–
